# Measured values published in paper PMC3923778 (PLoS Currents, 2014).
# Like-named read-outs stand apart in the source and are kept apart here.
# How the values were obtained:
# α2-adrenergic receptor = assay: Cerep diversity panel screen at 10 µM; assay type: binding
# Description: (§1) Studies were conducted at Cerep (France)
# NK3 receptor = target: T1, NK3 receptor (Homo sapiens, UniProt P29371); assay: Cerep diversity panel screen at 10 µM; assay type: binding
# T1 construct: Cerep (contract laboratory)
# Description: as §1
# [1] = test system: site 2 of the Na2+-channel; assay: Cerep diversity panel screen at 10 µM; assay type: binding
# Description: as §1
# [2] = target: T2, human choline transporter (Homo sapiens, UniProt Q9GZV3); assay: Cerep diversity panel screen at 10 µM; assay type: binding
# T2 construct: Cerep (contract laboratory)
# Description: as §1
# PDE5 = test system: PDE5; set-up: method as in PMID 9216839, PMID 17697115, PMID 8961086, PMID 7581878; conditions: [12] uses full length PDE5 derived from bovine lung, ref [12], [23], [27], [28], read-out: reported IC50; cited from earlier work
# [3] = Pharmacokinetic analysis in mice; assay type: in vivo, mouse; conditions: for half-life: read-out: Half-life (t1/2) (converted); for Tmax: read-out: Observed Tmax
# Description: All PK studies were conducted at Charles River Laboratories (CRL), MA, USA. CRL is fully accredited by the Association for Assessment and Accreditation of Laboratory Animal Care International (AAALAC), and is registered with the United States Department of Agriculture (USDA). All procedures involving animals were conducted humanely and were performed by trained and experienced personnel. The individual study protocols were reviewed and approved by the IACUC of CRL. A total of 48 male C57BL/6NCRL mice were used. Animals were acclimated to the study room environment for 5 days prior to dose administration. Mice were individually housed in micro isolator cages, and were kept on a 12/12 hour light/dark cycle except when interrupted for study procedures. Mice were fed LabDiet Certified Rodent Diet 5002 food ad libitum, except during fasting prior to dose administration, and had access to water ad libitum. […] For the iv doses, the compound was formulated at 1 mg/mL as a dose solution in 2% […] (NMP), 14% Propylene Glycol (PG), 14% Solutol HS–15, 70% 50mM Citrate, pH 4.5 , by volume. For the po dose, the compound was formulated at 1 mg/mL as a solution in 30% PG, 20% Solutol HS–15, 50% 50mM Citrate, pH 4.5, by volume. Aliquots (25 μL) of samples, plasma, and tissue blanks (containing internal standard only), plasma and tissue double blanks (without internal standard), control blanks (solvent only), diluted dose (dilute in plasma from the study species prior to extraction) and matrix calibration standards were dispensed into 96-well plates. Extracting solution with internal standard (100 μL) was added to all samples except matrix double blanks and solvent blanks. Extracting solution without internal standard (100 μL) was added to matrix double blanks. Samples were vortexed and centrifuged for 5 minutes, and the supernatants were transferred to a new plate. An aliquot (50 μL) of Milli-Q water was added to the samples, which were covered and vortexed for 5 minutes. […] Reserpine was used as an internal standard in the LC-MS/MS assay. Mice were divided into four groups of 3 animals each. Two blood samples were collected from each mouse following dosing; the second collection was a terminal sample and brains were also collected at that time as follows: Group 1 at 0.083 and 0.5 hr, Group 2 at 0.25 and 2 hr, Group 3 at 1 and 8 hr and Group 4 at 4 and 24 hr., and brain tissue time points at 0.5, 2, 8 and 24 hr. Non-compartmental pharmacokinetic analyses of the plasma concentration time course were performed using WinNonlin, version 5.2 (Pharsight Corp., Mountain View, California).
# PDE1A3 (cAMP) = target: T3, PDE1A3 (cAMP) (Homo sapiens, UniProt P54750); assay: IMAP PDE activity assay (Scottish Biomedical); assay type: biochemical; conditions: recombinant PDE1A3 (cAMP)
# T3 construct: Scottish Biomedical (contract laboratory)
# Description: (§2) Studies were conducted at Scottish Biomedical (Scotland, UK)
# (§3) Activity against recombinant PDEs (Table 1) was evaluated using the IMAP technology, which is based on high affinity binding of phosphate by immobilized metal coordination complexes on nanoparticles. The binding reagent complexes with phosphate groups on nucleotide monophosphate generated from cyclic nucleotides (cAMP/cGMP) through PDE activity. With fluorescence polarization detection, binding causes a change in the rate of the molecular motion of the phosphate bearing molecule, and results in an increase in the fluorescence polarization value observed for the fluorescent label attached to the substrate.
# PDE7A1 = target: T4, PDE7A1 (Homo sapiens, UniProt Q13946); assay: IMAP PDE activity assay (Scottish Biomedical); assay type: biochemical
# T4 construct: Scottish Biomedical (contract laboratory)
# Description: as §2, §3
# PDE6AB = target: T5, PDE6AB (Homo sapiens, UniProt P16499+P35913); assay: IMAP PDE activity assay (Scottish Biomedical); assay type: biochemical; conditions: NI, no inhibition noted at concentrations tested (up to 10 µM at Cerep and up to 100 µM at Scottish Biomedical)
# T5 construct: Scottish Biomedical (contract laboratory)
# Description: as §2, §3
# PDE4 Cat = assay: IMAP PDE activity assay (Scottish Biomedical); assay type: biochemical
# Description: as §2, §3
# PDE10A1 (cAMP) = PDE10A1 (cAMP) (Homo sapiens, UniProt Q9Y233); assay: IMAP PDE activity assay (Scottish Biomedical); assay type: biochemical; conditions: * Extrapolated value
# Description: as §2, §3
# PDE3 Cat = assay: IMAP PDE activity assay (Scottish Biomedical); assay type: biochemical; conditions: * Extrapolated value
# Description: as §2, §3
# PDE2A3 = target: T6, PDE2A3 (Homo sapiens, UniProt O00408); assay: IMAP PDE activity assay (Scottish Biomedical); assay type: biochemical; conditions: recombinant PDE2A3
# T6 construct: Scottish Biomedical (contract laboratory)
# Description: as §2, §3
# PDE8A1 = target: T7, PDE8A1 (Homo sapiens, UniProt O60658); assay: IMAP PDE activity assay (Scottish Biomedical); assay type: biochemical; conditions: NI, no inhibition noted at concentrations tested (up to 10 µM at Cerep and up to 100 µM at Scottish Biomedical)
# T7 construct: Scottish Biomedical (contract laboratory)
# Description: as §2, §3
# PDE11A1 (cAMP) = PDE11A1 (cAMP) (Homo sapiens, UniProt Q9HCR9); assay: IMAP PDE activity assay (Scottish Biomedical); assay type: biochemical; conditions: * Extrapolated value
# Description: as §2, §3
# PDE9A2 = PDE9A2 (Homo sapiens, UniProt O76083); assay: IMAP PDE activity assay (Scottish Biomedical); assay type: biochemical; conditions: * Extrapolated value
# Description: as §2, §3
# [4] = male, C57BL/6NCRL, mouse, 5 mg/kg, Brain, IV 5.0 (mg eq./kg)
# [5] = male, C57BL/6NCRL, mouse, 5 mg/kg, Plasma, IV 5.0 (mg eq./kg)
# T1 sequence (P29371 whole entry, species assumed): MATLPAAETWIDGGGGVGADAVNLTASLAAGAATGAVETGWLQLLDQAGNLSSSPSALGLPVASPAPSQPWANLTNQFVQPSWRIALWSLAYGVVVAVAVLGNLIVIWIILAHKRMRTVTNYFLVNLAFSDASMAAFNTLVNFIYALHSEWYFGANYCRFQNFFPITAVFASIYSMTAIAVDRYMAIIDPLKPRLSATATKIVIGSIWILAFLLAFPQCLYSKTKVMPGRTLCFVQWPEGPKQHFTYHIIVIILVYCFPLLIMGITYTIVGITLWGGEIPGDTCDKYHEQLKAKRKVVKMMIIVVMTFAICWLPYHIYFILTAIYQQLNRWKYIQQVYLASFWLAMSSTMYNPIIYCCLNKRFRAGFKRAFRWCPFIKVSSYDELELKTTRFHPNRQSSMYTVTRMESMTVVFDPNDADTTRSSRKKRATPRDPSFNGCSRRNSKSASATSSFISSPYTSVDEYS
# Chain of PDE11A1 (cAMP) (Q9HCR9 whole entry): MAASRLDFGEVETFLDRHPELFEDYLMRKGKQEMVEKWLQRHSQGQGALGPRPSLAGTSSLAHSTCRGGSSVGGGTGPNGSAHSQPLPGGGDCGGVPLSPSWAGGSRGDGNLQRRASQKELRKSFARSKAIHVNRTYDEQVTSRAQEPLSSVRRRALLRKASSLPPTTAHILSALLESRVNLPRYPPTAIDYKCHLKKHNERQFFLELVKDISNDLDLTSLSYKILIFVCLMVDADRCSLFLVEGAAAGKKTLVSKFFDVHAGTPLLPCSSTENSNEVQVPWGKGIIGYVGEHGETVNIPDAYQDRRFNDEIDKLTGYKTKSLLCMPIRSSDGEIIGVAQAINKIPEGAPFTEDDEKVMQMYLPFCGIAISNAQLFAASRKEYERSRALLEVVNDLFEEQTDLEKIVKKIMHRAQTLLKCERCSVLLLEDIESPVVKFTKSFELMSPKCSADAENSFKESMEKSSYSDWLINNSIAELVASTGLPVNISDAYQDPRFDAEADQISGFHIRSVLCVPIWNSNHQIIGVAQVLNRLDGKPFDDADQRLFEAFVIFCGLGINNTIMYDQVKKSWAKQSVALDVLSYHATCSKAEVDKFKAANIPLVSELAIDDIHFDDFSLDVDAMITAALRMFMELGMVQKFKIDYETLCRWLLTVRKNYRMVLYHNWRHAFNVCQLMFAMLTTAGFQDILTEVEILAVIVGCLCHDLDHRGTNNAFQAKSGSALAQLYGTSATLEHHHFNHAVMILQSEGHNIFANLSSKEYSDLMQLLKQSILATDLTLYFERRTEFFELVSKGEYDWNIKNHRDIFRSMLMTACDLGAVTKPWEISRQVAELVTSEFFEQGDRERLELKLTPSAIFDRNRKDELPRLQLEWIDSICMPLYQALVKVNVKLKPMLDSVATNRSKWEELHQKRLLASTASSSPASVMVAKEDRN
# Chain of PDE10A1 (cAMP) (Q9Y233 267-1055): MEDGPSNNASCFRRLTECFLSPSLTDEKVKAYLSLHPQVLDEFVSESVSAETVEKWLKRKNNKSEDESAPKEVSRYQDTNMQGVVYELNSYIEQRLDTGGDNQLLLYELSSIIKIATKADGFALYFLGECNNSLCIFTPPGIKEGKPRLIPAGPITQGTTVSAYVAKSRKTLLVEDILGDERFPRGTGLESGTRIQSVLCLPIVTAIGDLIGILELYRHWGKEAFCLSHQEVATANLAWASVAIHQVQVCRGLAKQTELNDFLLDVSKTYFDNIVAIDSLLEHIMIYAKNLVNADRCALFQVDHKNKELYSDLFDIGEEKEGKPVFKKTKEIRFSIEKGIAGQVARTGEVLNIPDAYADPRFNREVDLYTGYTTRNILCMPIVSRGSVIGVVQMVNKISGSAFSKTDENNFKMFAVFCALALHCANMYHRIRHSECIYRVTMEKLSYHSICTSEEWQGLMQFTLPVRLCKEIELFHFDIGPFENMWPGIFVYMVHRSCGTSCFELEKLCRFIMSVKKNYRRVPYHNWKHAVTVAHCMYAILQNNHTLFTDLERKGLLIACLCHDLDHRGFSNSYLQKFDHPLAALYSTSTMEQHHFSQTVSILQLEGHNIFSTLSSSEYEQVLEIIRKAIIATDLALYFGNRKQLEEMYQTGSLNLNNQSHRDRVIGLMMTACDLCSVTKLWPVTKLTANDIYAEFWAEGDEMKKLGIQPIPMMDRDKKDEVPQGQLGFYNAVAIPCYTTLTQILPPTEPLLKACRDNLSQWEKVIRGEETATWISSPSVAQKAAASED
# T7 sequence (O60658 whole entry, species assumed): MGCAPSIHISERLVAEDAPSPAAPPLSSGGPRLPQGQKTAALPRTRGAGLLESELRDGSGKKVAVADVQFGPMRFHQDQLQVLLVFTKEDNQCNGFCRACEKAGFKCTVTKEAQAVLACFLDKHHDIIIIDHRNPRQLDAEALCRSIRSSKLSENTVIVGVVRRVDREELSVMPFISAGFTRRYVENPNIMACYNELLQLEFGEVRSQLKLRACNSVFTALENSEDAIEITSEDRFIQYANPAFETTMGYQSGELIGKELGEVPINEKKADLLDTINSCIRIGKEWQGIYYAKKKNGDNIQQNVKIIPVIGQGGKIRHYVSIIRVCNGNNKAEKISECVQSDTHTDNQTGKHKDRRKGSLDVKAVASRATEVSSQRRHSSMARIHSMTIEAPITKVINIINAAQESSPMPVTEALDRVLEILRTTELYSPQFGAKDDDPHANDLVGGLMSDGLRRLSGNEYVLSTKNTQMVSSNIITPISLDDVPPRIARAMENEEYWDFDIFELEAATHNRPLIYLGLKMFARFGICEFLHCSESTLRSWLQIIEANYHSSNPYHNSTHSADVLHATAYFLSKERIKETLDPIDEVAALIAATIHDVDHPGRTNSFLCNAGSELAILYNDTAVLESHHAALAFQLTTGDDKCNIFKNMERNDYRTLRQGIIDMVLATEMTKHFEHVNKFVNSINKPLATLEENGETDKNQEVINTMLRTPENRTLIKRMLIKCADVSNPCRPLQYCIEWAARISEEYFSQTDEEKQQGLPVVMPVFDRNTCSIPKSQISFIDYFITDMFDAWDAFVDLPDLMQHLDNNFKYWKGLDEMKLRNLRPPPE
# Chain of PDE9A2 (O76083 whole entry): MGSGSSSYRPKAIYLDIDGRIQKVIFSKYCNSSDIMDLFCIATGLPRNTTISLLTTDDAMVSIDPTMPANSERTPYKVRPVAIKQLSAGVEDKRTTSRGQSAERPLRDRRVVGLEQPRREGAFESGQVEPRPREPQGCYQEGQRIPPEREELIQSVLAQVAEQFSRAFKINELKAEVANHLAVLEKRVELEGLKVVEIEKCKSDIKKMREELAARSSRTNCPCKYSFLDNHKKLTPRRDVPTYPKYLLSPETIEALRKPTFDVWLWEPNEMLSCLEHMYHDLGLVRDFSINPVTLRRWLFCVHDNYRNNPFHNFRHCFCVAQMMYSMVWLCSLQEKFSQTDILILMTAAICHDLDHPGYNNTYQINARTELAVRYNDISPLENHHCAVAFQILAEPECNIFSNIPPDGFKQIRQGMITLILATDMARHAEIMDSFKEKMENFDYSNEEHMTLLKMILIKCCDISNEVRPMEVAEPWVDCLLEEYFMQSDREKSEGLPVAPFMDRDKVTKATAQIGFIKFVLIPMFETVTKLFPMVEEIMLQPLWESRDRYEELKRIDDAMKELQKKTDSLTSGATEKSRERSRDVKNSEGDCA
# T6 sequence (O00408 whole entry, species assumed): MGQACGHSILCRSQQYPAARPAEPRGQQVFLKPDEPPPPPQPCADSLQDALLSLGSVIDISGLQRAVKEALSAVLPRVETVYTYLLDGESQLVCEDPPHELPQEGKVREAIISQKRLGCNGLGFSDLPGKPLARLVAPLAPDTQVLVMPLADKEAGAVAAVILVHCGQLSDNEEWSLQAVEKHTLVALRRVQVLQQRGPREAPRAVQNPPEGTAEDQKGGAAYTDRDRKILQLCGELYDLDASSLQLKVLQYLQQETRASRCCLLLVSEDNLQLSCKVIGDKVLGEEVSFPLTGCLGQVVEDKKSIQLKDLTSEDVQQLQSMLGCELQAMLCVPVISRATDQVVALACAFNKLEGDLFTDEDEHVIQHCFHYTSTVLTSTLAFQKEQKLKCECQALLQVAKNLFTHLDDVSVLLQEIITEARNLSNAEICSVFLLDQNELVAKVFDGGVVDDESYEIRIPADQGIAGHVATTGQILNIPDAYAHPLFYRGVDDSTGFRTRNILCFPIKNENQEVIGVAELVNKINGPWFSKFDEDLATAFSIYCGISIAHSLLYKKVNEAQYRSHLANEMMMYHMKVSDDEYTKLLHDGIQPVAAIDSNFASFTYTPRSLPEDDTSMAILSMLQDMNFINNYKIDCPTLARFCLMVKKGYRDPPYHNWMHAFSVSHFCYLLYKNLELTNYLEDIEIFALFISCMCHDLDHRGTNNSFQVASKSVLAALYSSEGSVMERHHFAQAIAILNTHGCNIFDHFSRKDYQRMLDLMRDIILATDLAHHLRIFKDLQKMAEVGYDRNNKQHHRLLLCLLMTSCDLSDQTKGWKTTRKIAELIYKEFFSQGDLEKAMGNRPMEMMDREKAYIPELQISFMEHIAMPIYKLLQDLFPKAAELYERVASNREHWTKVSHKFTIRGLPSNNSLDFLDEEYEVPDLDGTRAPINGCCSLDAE
# T4 sequence (Q13946 whole entry, species assumed): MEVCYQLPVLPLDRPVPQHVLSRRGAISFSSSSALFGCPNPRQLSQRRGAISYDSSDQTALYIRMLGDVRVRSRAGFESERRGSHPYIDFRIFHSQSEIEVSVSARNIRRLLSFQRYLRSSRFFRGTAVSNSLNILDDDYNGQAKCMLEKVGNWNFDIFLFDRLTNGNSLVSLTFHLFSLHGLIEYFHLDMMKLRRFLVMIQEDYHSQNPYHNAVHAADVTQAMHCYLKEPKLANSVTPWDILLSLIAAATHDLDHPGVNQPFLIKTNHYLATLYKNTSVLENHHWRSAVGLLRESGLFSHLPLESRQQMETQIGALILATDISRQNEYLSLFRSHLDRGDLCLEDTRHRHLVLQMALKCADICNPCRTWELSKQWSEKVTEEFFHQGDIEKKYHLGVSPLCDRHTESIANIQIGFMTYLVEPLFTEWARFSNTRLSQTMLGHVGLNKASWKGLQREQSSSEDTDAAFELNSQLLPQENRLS
structure (smiles),measurement,setting,value
"CN1C(=O)c2nc(Cc3ccc(C(F)(F)F)cc3)[nH]c2N2C1=N[C@H]1CCC[C@H]12 [SCH-51866, (+)-cis-5,6a,7,8,9,9a-hexahydro-2-[4-[trifluro-methyl]phenylmethyl]-5-methyl-cylopent[4,5]imidazo [2,1-b]purin-4(3H)one]",inhibition,α2-adrenergic receptor,88%
same,inhibition at 10 µM,NK3 receptor,57%
same,inhibition,[1],66%
same,inhibition at 10 µM,[2],94%
same,IC50,PDE5,0.06 µM
same,brain concentration at Tmax exceeds the biochemical IC50 for PDE1,[3]; after oral administration,~ 7 fold
same,time through which concentrations in brain were measurable for all animals,[3]; following dosing,8 h
same,AUC(0-inf),[3]; [4],8.23 µM·h
same,AUC(0-t),[3]; [4],8.18 µM·h
same,half-life,[3]; [4],1.08 h
same,Cmax,"[3]; male, C57BL/6NCRL, mouse, 5 mg/kg, Brain, IV 5.0 (mg eq./kg), read-out: Observed Cmax",3560 nM
same,AUC(0-inf),[3]; [5],7.35 µM·h
same,AUC(0-t),[3]; [5],7.31 µM·h
same,half-life,[3]; [5],3.87 h
same,MRT,"[3]; male, C57BL/6NCRL, mouse, 5 mg/kg, Plasma, IV 5.0 (mg eq./kg), read-out: Mean Residence Time (MRT)",2.57 h
same,clearance,"[3]; male, C57BL/6NCRL, mouse, 5 mg/kg, Plasma, IV 5.0 (mg eq./kg), read-out: Plasma Clearance (CLp) (converted)",29.2 mL/min/kg
same,Vd,"[3]; male, C57BL/6NCRL, mouse, 5 mg/kg, Plasma, IV 5.0 (mg eq./kg), read-out: Volume of Distribution at Steady State (Vdss)",4.48 L/kg
same,AUC(0-t),"[3]; male, C57BL/6NCRL, mouse, 10 mg/kg, Brain, PO 10.0 (mg eq./kg)",2.2 µM·h
same,Cmax,"[3]; male, C57BL/6NCRL, mouse, 10 mg/kg, Brain, PO 10.0 (mg eq./kg), read-out: Observed Cmax",475 nM
same,Tmax,"[3]; male, C57BL/6NCRL, mouse, brain, iv, 5 mg/kg, Brain, IV 5.0 (mg eq./kg)",0.5 h
same,Kp,"[3]; male, C57BL/6NCRL, mouse, brain, oral, 10 mg eq./kg, mice, read-out: Brain-to-plasma concentration ratios",0.1 to 0.4
same,Tmax,"[3]; male, C57BL/6NCRL, mouse, brain, po, 10 mg/kg, Brain, PO 10.0 (mg eq./kg)",2 h
same,Cmax,"[3]; male, C57BL/6NCRL, mouse, plasma, 10 mg/kg po in mice, read-out: plasma Cmax exposure",2400 nM
same,IC50,PDE1A3 (cAMP),0.07 µM
same,IC50,PDE7A1,> 100 µM
same,IC50,PDE6AB,> 100 µM
same,IC50,PDE4 Cat,> 100 µM
same,IC50,PDE10A1 (cAMP),16 µM
same,IC50,PDE3 Cat,17.3 µM
same,IC50,PDE2A3,1.32 µM
same,IC50,PDE8A1,> 100 µM
same,IC50,PDE11A1 (cAMP),21.9 µM
same,IC50,PDE9A2,51.3 µM
